{"source": "paper PMC11922054", "about": "(Science Advances, 2025)", "key": {"S. cohnii L5 [1]": {"test_system": "S. cohnii L5", "test": "MIC, broth microdilution", "type": "cell-based, Staphylococcus cohnii", "conditions": "for MICs of derivatives: strain not named in the sentence (table S6: S. cohnii L5 and E. coli)"}, "H9c2 cells": {"test_system": "H9c2 cells", "test": "Cytotoxicity, WST-1 assay", "type": "cell-based, rat", "conditions": "up to 512 μM, 24 hours"}, "[2]": {"test_system": "sheep red blood cells (RBCs)", "test": "Hemolytic activity", "type": "cell-based", "conditions": "0 to 512 μM, 37°C, 1 hour"}, "Vero cells": {"test_system": "Vero cells", "test": "Cytotoxicity, WST-1 assay", "type": "cell-based, African green monkey", "conditions": "up to 512 μM, 24 hours"}, "BALB/c mice": {"test_system": "BALB/c mice", "test": "In vivo toxicity experiments", "parameters": "species or system mouse", "conditions": "after 5 days; intraperitoneal, highest dose 150 mg/kg; n = 5"}, "pH stability": {"test": "pH stability", "type": "physicochemical", "conditions": "pH 2 to 12 for 1 and 2 hours, 37°C; read-out activity on S. cohnii L5"}, "S. cohnii L5 [3]": {"test_system": "S. cohnii L5", "test": "Mouse skin wound infection model", "type": "in vivo", "conditions": "10 days; NCBP1 8 mg/kg"}, "A549 cells": {"test_system": "A549 cells", "test": "Cytotoxicity, WST-1 assay", "type": "cell-based", "conditions": "up to 512 μM, 24 hours"}, "HEp-2 cells": {"test_system": "HEp-2 cells", "test": "Cytotoxicity, WST-1 assay", "type": "cell-based, human", "conditions": "up to 512 μM, 24 hours"}}, "note": "Ends that are not written are not given here.", "data": [{"sequence": "APWLRVALCPG [NCBP1a]", "values": [{"measurement": "MICs of derivatives", "setting": "S. cohnii L5 [1]", "result": "> 512", "unit": "µM"}]}, {"sequence": "KPWLAVALCPG [NCBP1b]", "values": [{"measurement": "MICs of derivatives", "setting": "S. cohnii L5 [1]", "result": "> 512", "unit": "µM"}]}, {"sequence": "KPWLRVALCPG [NCBP1]", "values": [{"measurement": "toxicity toward cells", "setting": "H9c2 cells", "result": "negligible toxicity"}, {"measurement": "hemolytic activity", "setting": "[2]", "result": "no noticeable hemolytic activity"}, {"measurement": "toxicity toward cells", "setting": "Vero cells", "result": "negligible toxicity"}, {"measurement": "survival rate of mice", "setting": "BALB/c mice", "result": 100, "unit": "%"}, {"measurement": "pH stability", "setting": "pH stability", "result": "resistant to a wide range of pH values"}, {"measurement": "growth of the mice, body weight", "setting": "S. cohnii L5 [3]", "result": "did not affect the normal growth"}, {"measurement": "MIC", "setting": "S. cohnii L5 [1]; S. cohnii L5, broth microdilution, 18 h, 37°C", "result": 16, "unit": "µM"}, {"measurement": "toxicity toward cells", "setting": "A549 cells", "result": "negligible toxicity"}, {"measurement": "toxicity toward cells", "setting": "HEp-2 cells", "result": "negligible toxicity"}]}]}
